Data reported in ChEMBL document CHEMBL1201862, “PubChem BioAssay data set” (2004).
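Dose response: 5 concentrations. Exposure: 48 h. Format: 96-well plates. Endpoint: linear interpolation; highest concentration if not reached. GI50: concentration for 50% inhibition of growth.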 Activity calls are given as the source filed them. Rule as the data show it: active = GI50 up to about 1.1 µM and inactive = higher.

Experiments:
Assay in all cases: inhibition of tumour cell growth, NCI panel, 48 h
786-0 = test system: 786-0
A549 = test system: A549
ACHN = test system: ACHN
DU-145 = test system: DU-145
EKVX = test system: EKVX
HCT-15 = test system: HCT-15
HL-60 = test system: HL-60
HOP-92 = test system: HOP-92
HT-29 = test system: HT-29
K562 = test system: K562
NCI-H460 = test system: NCI-H460
NCI/ADR-RES = test system: NCI/ADR-RES
PC-3 = test system: PC-3
RXF 393 = test system: RXF 393
SF-268 = test system: SF-268
SK-OV-3 = test system: SK-OV-3
SW-620 = test system: SW-620
TK-10 = test system: TK-10
SR = test system: SR

Measured: GI50

O=C1Nc2ccc(Br)cc2C1=Nc1cccnc1
inactive: 786-0 20.5 µM | A549 48.4 µM | ACHN 18.3 µM | DU-145 33 µM | EKVX 24.3 µM | HL-60 11.8 µM | HOP-92 > 100 µM | HT-29 21 µM | K562 20.1 µM | NCI-H460 > 100 µM | NCI/ADR-RES 24.8 µM | PC-3 18.1 µM | RXF 393 15.2 µM | SF-268 27.7 µM | SK-OV-3 47.5 µM | SW-620 17.8 µM | TK-10 57.5 µM
22.1 µM: HCT-15

CCc1ncc(CO)n1Cc1cccc2ccccc12
> 100 µM: HCT-15
inactive: 786-0 > 100 µM | A549 > 100 µM | ACHN > 100 µM | DU-145 > 100 µM | EKVX > 100 µM | HOP-92 86.1 µM | HT-29 96.8 µM | K562 > 100 µM | NCI-H460 > 100 µM | NCI/ADR-RES 50.9 µM | PC-3 > 100 µM | RXF 393 > 100 µM | SF-268 > 100 µM | SK-OV-3 > 100 µM | SW-620 > 100 µM | TK-10 99.5 µM

NC(=S)N/N=C/c1cn(CCCl)c2ccccc12
8.69 µM: HCT-15
inactive: 786-0 43.7 µM | A549 34.9 µM | EKVX 14.7 µM | HL-60 9.57 µM | HOP-92 21.9 µM | HT-29 23.9 µM | K562 8.05 µM | RXF 393 > 100 µM | SF-268 > 100 µM | SK-OV-3 > 100 µM | SR 11 µM | SW-620 43.6 µM | TK-10 90.2 µM

O=C(O)/C(O)=C\C(=O)c1ccc(Br)cc1
> 100 µM: HCT-15
inactive: 786-0 > 100 µM | A549 > 100 µM | ACHN > 100 µM | DU-145 > 100 µM | EKVX 2.98 µM | HL-60 > 100 µM | HOP-92 > 100 µM | HT-29 > 100 µM | K562 > 100 µM | NCI-H460 > 100 µM | NCI/ADR-RES > 100 µM | PC-3 > 100 µM | RXF 393 > 100 µM | SF-268 > 100 µM | SK-OV-3 > 100 µM | SW-620 > 100 µM | TK-10 > 100 µM

CCOC(=O)C1=C(C)NC(C)=C(C(=O)OCC)C1c1ccc(C)cc1
inactive: 786-0 20 µM | A549 47.2 µM | ACHN 43 µM | DU-145 71.9 µM | EKVX 42.7 µM | HOP-92 13.1 µM | HT-29 27.8 µM | K562 31 µM | NCI-H460 22.9 µM | PC-3 24.5 µM | RXF 393 29.1 µM | SF-268 51.1 µM | SK-OV-3 57 µM | SW-620 45.8 µM | TK-10 66.8 µM
25.8 µM: HCT-15

COc1ccc(C2OC(c3ccncc3)=NN2C)cc1F (stereo unspecified)
inactive: 786-0 > 100 µM | A549 > 100 µM | ACHN > 100 µM | DU-145 > 100 µM | EKVX > 100 µM | HL-60 > 100 µM | HOP-92 > 100 µM | HT-29 > 100 µM | K562 > 100 µM | NCI-H460 > 100 µM | NCI/ADR-RES > 100 µM | PC-3 > 100 µM | RXF 393 > 100 µM | SF-268 > 100 µM | SK-OV-3 > 100 µM | SW-620 > 100 µM | TK-10 > 100 µM
> 100 µM: HCT-15

COC1(OC)c2occc2C(=N)c2ccc(=O)oc21
inactive: 786-0 > 100 µM | A549 > 100 µM | ACHN 92.3 µM | DU-145 > 100 µM | EKVX > 100 µM | HL-60 45.8 µM | HOP-92 > 100 µM | HT-29 > 100 µM | K562 > 100 µM | NCI-H460 > 100 µM | PC-3 > 100 µM | RXF 393 > 100 µM | SF-268 > 100 µM | SK-OV-3 > 100 µM | SR 71.8 µM | SW-620 > 100 µM | TK-10 > 100 µM
> 100 µM: HCT-15

CC1=NN(c2cccc(Cl)c2)C(=N/c2nc3ccccc3s2)/C1=C\C=C\c1ccccc1
inactive: 786-0 41.4 µM | ACHN 28 µM | DU-145 50.4 µM | EKVX 47.6 µM | HL-60 13.8 µM | HT-29 33.5 µM | K562 9.23 µM | NCI-H460 29.7 µM | NCI/ADR-RES 59.2 µM | RXF 393 51.4 µM | SF-268 35.8 µM | SK-OV-3 34.6 µM | SW-620 > 100 µM | TK-10 34.9 µM
active: SR 0.359 µM
32.2 µM: HCT-15

N#Cc1nnn(-c2ccccc2)c1O
inactive: 786-0 > 100 µM | A549 > 100 µM | ACHN > 100 µM | DU-145 > 100 µM | EKVX > 100 µM | HL-60 > 100 µM | HT-29 > 100 µM | K562 > 100 µM | NCI/ADR-RES > 100 µM | PC-3 > 100 µM | RXF 393 > 100 µM | SF-268 > 100 µM | SK-OV-3 > 100 µM | SW-620 > 100 µM | TK-10 > 100 µM
> 100 µM: HCT-15

O=C(/C=C/c1ccc(O)c([N+](=O)[O-])c1)CC(=O)/C=C/c1ccc(O)c([N+](=O)[O-])c1
38.5 µM: HCT-15
inactive: 786-0 > 100 µM | A549 53.7 µM | ACHN > 100 µM | DU-145 28.4 µM | EKVX 50.9 µM | HL-60 21.7 µM | HT-29 42.7 µM | NCI-H460 30.5 µM | NCI/ADR-RES 35.3 µM | PC-3 56.4 µM | RXF 393 44.4 µM | SF-268 54.6 µM | SK-OV-3 83.2 µM | SW-620 37.1 µM | TK-10 92.5 µM

Cn1c(=O)n2n(c1=O)[C@@H](c1ccccc1)[C@H]2c1ccccc1
inactive: 786-0 > 100 µM | A549 > 100 µM | ACHN > 100 µM | EKVX > 100 µM | HL-60 20.6 µM | HOP-92 > 100 µM | HT-29 > 100 µM | K562 64.3 µM | NCI-H460 > 100 µM | NCI/ADR-RES > 100 µM | PC-3 > 100 µM | RXF 393 > 100 µM | SK-OV-3 > 100 µM | SR > 100 µM | SW-620 > 100 µM | TK-10 > 100 µM
> 100 µM: HCT-15

O=C(/C=C\Nc1ccccc1O)C(Cl)(Cl)Cl
38.5 µM: HCT-15
inactive: 786-0 22.8 µM | A549 48.2 µM | ACHN 26.9 µM | DU-145 45.8 µM | EKVX 45.7 µM | HL-60 21.8 µM | HOP-92 70.5 µM | HT-29 36.1 µM | K562 36.7 µM | NCI-H460 53.7 µM | NCI/ADR-RES 99.3 µM | PC-3 37.7 µM | RXF 393 33.5 µM | SF-268 > 100 µM | SK-OV-3 53.2 µM | SW-620 > 100 µM | TK-10 78.5 µM

O=C(c1ccco1)N(C(=O)N1CCCCC1)c1ccccc1
> 100 µM: HCT-15
inactive: 786-0 > 100 µM | ACHN > 100 µM | DU-145 > 100 µM | EKVX > 100 µM | HL-60 > 100 µM | HT-29 > 100 µM | K562 > 100 µM | NCI/ADR-RES > 100 µM | PC-3 > 100 µM | RXF 393 87.9 µM | SF-268 > 100 µM | SK-OV-3 > 100 µM | SW-620 > 100 µM | TK-10 > 100 µM

CC(C)(C)OC(=O)N1CCCC1=O
> 10 µM: HCT-15
inactive: 786-0 > 10 µM | A549 > 10 µM | ACHN > 10 µM | DU-145 > 10 µM | EKVX > 10 µM | HL-60 > 10 µM | HOP-92 > 10 µM | HT-29 > 10 µM | K562 > 10 µM | NCI-H460 > 10 µM | PC-3 > 10 µM | RXF 393 > 10 µM | SF-268 > 10 µM | SK-OV-3 > 10 µM | SR > 10 µM | SW-620 > 10 µM | TK-10 > 10 µM

COc1ccc(C2=Cc3nc2c(-c2ccccc2)c2ccc([nH]2)c(-c2ccccc2)c2nc(c(-c4ccccc4)c4ccc([nH]4)c3-c3ccccc3)C=C2)cc1
> 100 µM: HCT-15
inactive: 786-0 > 100 µM | A549 > 100 µM | ACHN > 100 µM | DU-145 > 100 µM | EKVX > 100 µM | HL-60 > 100 µM | HOP-92 35.2 µM | HT-29 > 100 µM | K562 > 100 µM | NCI-H460 > 100 µM | PC-3 > 100 µM | RXF 393 > 100 µM | SF-268 51.4 µM | SK-OV-3 > 100 µM | SR > 100 µM | SW-620 > 100 µM | TK-10 > 100 µM

COC(=O)c1cc(C)ccc1C1CN=NC12Cc1ccc(C)cc1C2=O (stereo unspecified)
inactive: 786-0 > 100 µM | A549 29.8 µM | ACHN 38.6 µM | DU-145 82.8 µM | EKVX 46.5 µM | HL-60 13 µM | HOP-92 19.1 µM | HT-29 41.5 µM | K562 19.4 µM | NCI-H460 34.1 µM | NCI/ADR-RES 28.5 µM | PC-3 32.4 µM | RXF 393 59.6 µM | SF-268 32.7 µM | SK-OV-3 38.1 µM | SW-620 53.2 µM | TK-10 61 µM
40.1 µM: HCT-15

CC1(C)[C@@H](Cn2cnc3c(Cl)nc(N)nc32)CC[C@@]1(C)CO
inactive: 786-0 > 100 µM | A549 > 100 µM | ACHN > 100 µM | DU-145 > 100 µM | EKVX 58.9 µM | HOP-92 > 100 µM | K562 > 100 µM | NCI/ADR-RES 83.4 µM | PC-3 96.6 µM | RXF 393 65.8 µM | SF-268 20.8 µM | SK-OV-3 > 100 µM | SW-620 42.4 µM | TK-10 > 100 µM
35.9 µM: HCT-15
